Counter-ions that a name gives are not always drawn. Like-named read-outs stand apart in the source and are kept apart here.
How the values were obtained:
[1] = tested on: CCL2; test: ELISA cytokine protein quantification, CCL2; assay type: cell-based, Canine
Method: (§1) MDCK cells were treated as mentioned above. Untreated cells were considered as the negative control. Cell-free supernatant was harvested following 72 h infection period and stored at − 80 °C for the cytokine analysis. In order to investigate the effect of viral infection and anionic compounds on the production of inflammatory cytokines such as IL-6, CCL2 and TNF-α as well as anti-inflammatory cytokine proteins IFN-β1 and IL-27, ELISA method was utilized. Quantitative sandwich Picokine ELISA kits (Boster Biological Technology, CA, USA) were used to detect IL-6, TNF-α and IL-27 cytokine proteins according to the manufacturer's instructions. The CCL2 and IFN-β were evaluated by sandwich Ready-SET-Go kit (Invitrogen, USA) and sandwich geneILNB1 kit (EIAab Science Co, China) according to the manufacturers’ instructions, respectively. The concentrations of the cytokines were calculated according to the corresponding reaction standard formula.
(§2) The cytokine protein levels in supernatants of MDCK cell culture at 72 h after exposure were calculated according to the reaction standard formula.
(§3) To calculate the concentration of the cytokines in cell free supernatants, firstly, the standards optical densities were measured and the standard curves were plotted. The equations of standard curves were used to estimate protein concentration in the samples.

[2] = tested on: IFN- β; test: ELISA cytokine protein quantification, IFN-β; assay type: cell-based, Canine
Method: as §1, §2, §3

[3] = tested on: CCL2; assay type: cell-based, Canine; details: combination treatment (co-penetration) with H1N1, 72 h; H1N1 alone 22.123 fold
[4] = tested on: IFN-β1; assay type: cell-based, Canine; details: combination treatment (co-penetration) with H1N1, 72 h; H1N1 alone 0.038 fold
[5] = tested on: IL-27; test: ELISA cytokine protein quantification, IL-27; assay type: cell-based, Canine
Method: as §1, §2, §3

[6] = tested on: TNF-α; test: ELISA cytokine protein quantification, TNF-α; assay type: cell-based, Canine
Method: as §1, §2, §3

[7] = tested on: IL-27; assay type: cell-based, Canine; details: combination treatment (co-penetration) with H1N1, 72 h; H1N1 alone 0.004 fold
[8] = tested on: IL-6; test: ELISA cytokine protein quantification, IL-6; assay type: cell-based, Canine
Method: as §1, §2, §3

[9] = tested on: TNF-α; assay type: cell-based, Canine; details: combination treatment (co-penetration) with H1N1, 72 h; H1N1 alone 191.00 fold
[10] = tested on: IAV M gene; assay type: cell-based, influenza A virus
[11] = tested on: IL-6; assay type: cell-based, Canine; details: combination treatment (co-penetration) with H1N1, 72 h; H1N1 alone 16.622 fold
[12] = tested on: MDCK cells; test: MTT cytotoxicity assay of the compounds (CC50, NCTC, selectivity index); details: MDCK cells, MTT, 48 h
Method: (§4) The cytotoxic effects of the anionic compounds on the viability of MDCK cells was measured by MTT [3-(4, 5-dimethylthiazol-2ol) 2, 5 diphenyl tetrazolium bromide] assay. Briefly, the confluent 96-well plate of MDCK cells were exposed to twofold serial dilutions of the compounds (in triplicates), 100 μl/well, and incubated for 48 h. After the incubation period, the supernatants were removed and 100 μl of 1X MTT solution (100 μl/well) was added to each well. The plates were incubated for 4 h at 37 °C. Then, 100 μl of DMSO (Samchun, Korea) was added to dissolve formazan crystals. Color adsorption in the solution was measured using an enzyme-linked immunosorbent assay (ELISA) reader (StataFax 2100, USA) at 570 nm to calculate the 50% cytotoxic concentration (CC50). The cells without treatment were used as negative control. The percentage of toxicity was calculated using the following formula:
(§5) Toxicity (%) = [100 − (ODT/ODC) × 100], where ODT and ODC refer to the absorbance of the test substance and control, respectively [34]. The 50% cytotoxic concentration (CC50) was defined as the cytotoxic concentration of compounds by regression analysis.
(§6) The non-cytotoxic concentration (NCTC) of the compounds was also determined using the same procedure and used for the antiviral assays. […] The cells with no treatment were considered as negative control.
(§7) The selectivity index (SI) is relative safety of a compound and it was obtained by dividing CC50 by NCTC in the same units.

[13] = as above; details: dog
Method: as §4, §5, §6, §7

[14] = co-penetration with H1N1, MDCK supernatant, 72 h, H1N1 alone 1243.79 ± 5.58
[15] = co-penetration with H1N1, MDCK supernatant, 72 h, H1N1 alone 26.25 ± 1.77
[16] = co-penetration with H1N1, MDCK supernatant, 72 h, H1N1 alone 941.67 ± 4.71
[17] = co-penetration with H1N1, MDCK supernatant, 72 h, H1N1 alone 523.00 ± 2.41

CC(=O)[O-].[Na+] [Acetate, sodium acetate]
CCL2 cytokine protein concentration (mean ± SD) [1]: 338.26 ± 0.00 pg/mL
percentage of change of CCL2 protein relative to H1N1 (mean ± SD) ([1]; co-penetration, 72 h): -72.80 ± 0.12
IFN- β cytokine protein concentration (mean ± SD) [2]: 68.96 ± 2.06 pg/mL
percentage of change of IFN- β protein relative to H1N1 (mean ± SD) ([2]; co-penetration, 72 h): 163.03 ± 9.86
CCL2 relative expression [3]: 0.094 fold
IFN- β1 relative expression [4]: 0.049 fold
IL-27 cytokine protein concentration (mean ± SD) [5]: 1938.33 ± 0.00 pg/mL
percentage of change of IL-27 protein relative to H1N1 (mean ± SD) ([5]; co-penetration, 72 h): 105.84 ± 1.03
TNF-α cytokine protein concentration (mean ± SD) [6]: 222.20 ± 0.64 pg/mL
percentage of change of TNF-α protein relative to H1N1 (mean ± SD) ([6]; co-penetration, 72 h): -57.51 ± 0.32
IL-27 relative expression [7]: 0.099 fold
IL-6 cytokine protein concentration (mean ± SD) [8]: 110.64 ± 0.08 pg/mL
TNF-α relative expression [9]: 4.83 fold
Ct value, IAV M gene [10]: 20.70 ± 0.30
IL-6 relative expression [11]: 0.020 fold
CC50 [12]: 28950 ± 4320 mg/L
NCTC (non-cytotoxic concentration) [12]: 3.00 ± 0.00 mg/mL
NCTC (non-cytotoxic concentration) ([12]; listed as acetate): 3 mg/mL

NC12CC3CC(CC(C3)C1)C2 [Amantadine hydrochloride, reference compound]
CC50 at 48 h [13]: 200 ± 1530 mg/L
NCTC (non-cytotoxic concentration) [12]: 0.10 ± 0.00 mg/mL

O=C1O[C@H]([C@@H](O)CO)C(O)=C1O [Ascorbate, ascorbic acid]
CCL2 cytokine protein concentration (mean ± SD) [1, 14]: 309.05 ± 1.86 pg/mL
CCL2 cytokine protein concentration (mean ± SD) ([1]; co-penetration with H1N1, MDCK supernatant, 72 h, H1N1 alone 1243.79 ± 5.58, listed as Asc): 309.05 ± 1.86 pg/mL
IFN- β cytokine protein concentration (mean ± SD) [2, 15]: 73.75 ± 1.77 pg/mL
IFN- β cytokine protein concentration (mean ± SD) ([2]; co-penetration with H1N1, MDCK supernatant, 72 h, H1N1 alone 26.25 ± 1.77, listed as Asc): 73.75 ± 1.77 pg/mL
IL-27 cytokine protein concentration (mean ± SD) [5, 16]: 1833.33 ± 2.36 pg/mL
TNF-α cytokine protein concentration (mean ± SD) [6, 17]: 284.25 ± 0.32 pg/mL
IL-6 cytokine protein concentration (mean ± SD) ([8]; co-penetration with H1N1, MDCK supernatant, 72 h, H1N1 alone 171.78 ± 0.17): 38.05 ± 0.17 pg/mL
Ct value, IAV M gene ([10]; combination treatment with H1N1, supernatants of 48 h treatments, H1N1 alone 12.76 ± 0.24): No Ct value was detected

O=C(O)CC(O)(CC(=O)O)C(=O)O [Citrate, sodium citrate]
CCL2 cytokine protein concentration (mean ± SD) [1, 14]: 446.95 ± 0.37 pg/mL
IFN- β cytokine protein concentration (mean ± SD) [2, 15]: 70.62 ± 2.06 pg/mL
IL-27 cytokine protein concentration (mean ± SD) [5, 16]: 2055.00 ± 0.00 pg/mL
IL-27 cytokine protein concentration (mean ± SD) ([5]; co-penetration with H1N1, MDCK supernatant, 72 h, H1N1 alone 941.67 ± 4.71, listed as Cit): 2055.00 ± 0.00 pg/mL
TNF-α cytokine protein concentration (mean ± SD) [6, 17]: 253.45 ± 0.48 pg/mL
IL-6 cytokine protein concentration (mean ± SD) ([8]; co-penetration with H1N1, MDCK supernatant, 72 h, H1N1 alone 171.78 ± 0.17, listed as Cit): 126.60 ± 0.17 pg/mL
Ct value, IAV M gene [10]: 22.45 ± 0.75
NCTC (non-cytotoxic concentration) [12]: 3.00 ± 0.00 mg/mL
NCTC (non-cytotoxic concentration) ([12]; listed as citrate): 3 mg/mL

— PMC9125540 (Virology Journal, 2022)
